According to ChEMBL document CHEMBL1141412, “Search for cell motility and angiogenesis inhibitors with potential anticancer activity: beauvericin and other constituents of two endophytic strains of Fusarium oxysporum” (J Nat Prod, 2007):
Calls of active or inactive are those of the source. The calls are words filed in the database; no cut-off is given here.

Columns and labels:
[1] = test system: NCI-H460; assay: Cytotoxicity against human NCI-H460 cells at 4 ug/mL after 72 hrs by MTT assay; type: cell-based; conditions: nci-h460, 72 h
[2] = test system: MIA PaCa-2; assay: Cytotoxicity against human MIAPaCa2 cells at 4 ug/mL after 72 hrs by MTT assay; type: cell-based; conditions: mia paca-2, 72 h
[3] = test system: MCF7; assay: Cytotoxicity against human MCF7 cells at 4 ug/mL after 72 hrs by MTT assay; type: cell-based; conditions: mcf7, 72 h
[4] = test system: SF-268; assay: Cytotoxicity against human SF268 cells at 4 ug/mL after 72 hrs by MTT assay; type: functional, cell-based
[5] = test system: NCI-H460; assay: Cytotoxicity against human NCI-H460 cells at 2 ug/mL after 72 hrs by MTT assay; type: cell-based; conditions: nci-h460, 72 h
[6] = test system: MIA PaCa-2; assay: Cytotoxicity against human MIAPaCa2 cells at 2 ug/mL after 72 hrs by MTT assay; type: cell-based; conditions: mia paca-2, 72 h
[7] = test system: MCF7; assay: Cytotoxicity against human MCF7 cells at 2 ug/mL after 72 hrs by MTT assay; type: cell-based; conditions: mcf7, 72 h
[8] = test system: SF-268; assay: Cytotoxicity against human SF268 cells at 2 ug/mL after 72 hrs by MTT assay; type: functional, cell-based
[9] = test system: NCI-H460; assay: Cytotoxicity against human NCI-H460 cells after 72 hrs by MTT assay; type: cell-based; conditions: NCI-H460, 72 h
[10] = test system: MIA PaCa-2; assay: Cytotoxicity against human MIAPaCa2 cells after 72 hrs by MTT assay; type: cell-based; conditions: MIA PaCa-2, 72 h
[11] = test system: MCF7; assay: Cytotoxicity against human MCF7 cells after 72 hrs by MTT assay; type: cell-based; conditions: MCF7, 72 h
[12] = test system: SF-268; assay: Cytotoxicity against human SF268 cells after 72 hrs by MTT assay; type: functional, cell-based; conditions: SF-268, 72 h
[13] = Inhibition of cell proliferation in PC3M cells after 20 hrs by MTT assay; type: functional, cell-based; conditions: Homo sapiens, PC-3M
[14] = test system: MDA-MB-231; assay: Inhibition of cell proliferation in MDA-MB-231 cells after 40 hrs by MTT assay; type: functional, cell-based; conditions: Homo sapiens, MDA-MB-231, 40 h
[15] = test system: HUVEC; assay: Antiangiogenic activity in HUVEC-2 cells assessed as inhibition of endothelial cell network formation after 16 hrs at 3 uM; type: functional, cell-based; conditions: Homo sapiens
[16] = Antiangiogenic activity in HUVEC-2 cells assessed as inhibition of endothelial cell network formation after 16 hrs; type: functional, cell-based; conditions: Homo sapiens

Q: With `COC1=CC(=O)c2c(cc3oc4cc(OC)cc(C)c4c(=O)c3c2O)C1=O` as the compound, how does the Activity [1] read?
A: Not Active

Q: And the Activity [2]?
A: Not Active

Q: And the Activity [3]?
A: Not Active

Q: And the Activity [4]?
A: inactive

Q: And the Activity [5]?
A: Not Active

Q: What about the Activity [6] of the same compound?
A: Not Active

Q: And the Activity [7]?
A: Not Active

Q: And the Activity [8]?
A: inactive

Q: Which results are given for `COC1=CC(=O)c2c(c(O)c3oc4cc(OC)cc(C)c4c(=O)c3c2O)C1=O` [BIKAVERIN]?
A: IC50 [9]: 430 nM; IC50 [10]: 260 nM; IC50 [11]: 420 nM; IC50 [12]: 380 nM

Q: With `COc1cccc2c1C(=O)c1c(O)c3c(c(O)c1C2=O)C[C@@](O)(C(=O)CO)C[C@@H]3O[C@H]1C[C@H](N)[C@H](O)[C@H](C)O1` [DOXORUBICIN] as the compound, how does the IC50 [9] read?
A: 10 nM

Q: What about the IC50 [10] of the same compound?
A: 50 nM

Q: And the IC50 [12]?
A: 40 nM

Q: For `CC(C)[C@@H]1OC(=O)[C@@H](Cc2ccccc2)N(C)C(=O)[C@H](C(C)C)OC(=O)[C@@H](Cc2ccccc2)N(C)C(=O)[C@H](C(C)C)OC(=O)[C@@H](Cc2ccccc2)N(C)C1=O` [BEAUVERICIN], which IC50 [9] is on record?
A: 1410 nM

Q: What about the IC50 [10] of the same compound?
A: 1660 nM

Q: What about the IC50 [11] of the same compound?
A: 1810 nM

Q: What about the IC50 [12] of the same compound?
A: 2290 nM

Q: What about the IC25 [13] of the same compound?
A: 2300 nM

Q: And the IC50 [13]?
A: 3800 nM

Q: And the IC25 [14]?
A: 6400 nM

Q: And the IC50 [14]?
A: 7500 nM

Q: What about the Activity [15] of the same compound?
A: Active

Q: What about the IC25 [16] of the same compound?
A: 5000 nM

Q: What about the IC50 [16] of the same compound?
A: 7500 nM
